Measurements taken from the CheMixHub viscosity set.

Experiment: xn = mol fraction of the nth substance listed

CCCCCCCCCCO + CCCCO
viscosity [mPa·s]
Settings | 293.15 K | 298.15 K | 308.15 K | 318.15 K
101 kPa, x2 = 0.05 | – | 10.62 | 7.143 | 5.139
101 kPa, x2 = 0.1 | – | 10.2 | 6.798 | 4.922
101 kPa, x2 = 0.15 | – | 9.731 | 6.473 | 4.71
101 kPa, x2 = 0.2 | – | 9.226 | 6.163 | 4.501
101 kPa, x2 = 0.25 | – | 8.701 | 5.866 | 4.294
101 kPa, x2 = 0.3 | – | 8.167 | 5.576 | 4.088
101 kPa, x2 = 0.35 | – | 7.635 | 5.292 | 3.883
101 kPa, x2 = 0.4 | – | 7.113 | 5.012 | 3.678
101 kPa, x2 = 0.45 | – | 6.609 | 4.734 | 3.475
101 kPa, x2 = 0.5 | – | 6.127 | 4.456 | 3.272
101 kPa, x2 = 0.55 | – | 5.671 | 4.179 | 3.07
101 kPa, x2 = 0.6 | – | 5.243 | 3.903 | 2.872
101 kPa, x2 = 0.65 | – | 4.843 | 3.629 | 2.676
101 kPa, x2 = 0.7 | – | 4.47 | 3.358 | 2.485
101 kPa, x2 = 0.75 | – | 4.12 | 3.093 | 2.301
101 kPa, x2 = 0.8 | – | 3.788 | 2.837 | 2.124
101 kPa, x2 = 0.85 | – | 3.468 | 2.592 | 1.958
101 kPa, x2 = 0.9 | – | 3.152 | 2.364 | 1.804
101 kPa, x2 = 0.95 | – | 2.828 | 2.157 | 1.665
101.33 kPa, x2 = 0.1748 | 11.91 | – | – | –
101.33 kPa, x2 = 0.1793 | – | 9.791 | – | –
101.33 kPa, x2 = 0.2939 | 10.27 | – | – | –
101.33 kPa, x2 = 0.4002 | – | 7.559 | – | –
101.33 kPa, x2 = 0.491 | 7.756 | – | – | –
101.33 kPa, x2 = 0.5389 | – | 6.102 | – | –
101.33 kPa, x2 = 0.6325 | 6.156 | – | – | –
101.33 kPa, x2 = 0.7242 | – | 4.498 | – | –
101.33 kPa, x2 = 0.7787 | 4.69 | – | – | –
101.33 kPa, x2 = 0.836 | – | 3.659 | – | –
101.33 kPa, x2 = 0.8851 | 3.806 | – | – | –
101.33 kPa, x2 = 0.9219 | – | 3.077 | – | –

CCOC(=O)OCC + CCCCO
101 kPa
Settings | viscosity [mPa·s]
293.15 K, x1 = 0.05477 | 2.407
293.15 K, x1 = 0.1013 | 2.092
293.15 K, x1 = 0.1989 | 1.633
293.15 K, x1 = 0.3128 | 1.321
293.15 K, x1 = 0.4106 | 1.145
293.15 K, x1 = 0.5009 | 1.023
293.15 K, x1 = 0.6135 | 0.901
293.15 K, x1 = 0.7033 | 0.838
293.15 K, x1 = 0.7967 | 0.806
293.15 K, x1 = 0.8803 | 0.807
293.15 K, x1 = 0.9292 | 0.802
303.15 K, x1 = 0.1264 | 1.549
303.15 K, x1 = 0.2963 | 1.093
303.15 K, x1 = 0.4038 | 0.957
303.15 K, x1 = 0.5148 | 0.867
303.15 K, x1 = 0.6085 | 0.808
303.15 K, x1 = 0.7037 | 0.759
303.15 K, x1 = 0.8066 | 0.717
303.15 K, x1 = 0.9043 | 0.701
313.15 K, x1 = 0.04531 | 1.564
313.15 K, x1 = 0.2917 | 0.947
313.15 K, x1 = 0.4025 | 0.819
313.15 K, x1 = 0.5009 | 0.743
313.15 K, x1 = 0.6129 | 0.679
313.15 K, x1 = 0.7014 | 0.645
313.15 K, x1 = 0.81 | 0.628
313.15 K, x1 = 0.9091 | 0.619

Cc1ccccc1C + CCCCO
308.15 K, 101 kPa
Settings | viscosity [mPa·s]
x2 = 0.0515 | 0.62
x2 = 0.1019 | 0.659
x2 = 0.1872 | 0.672
x2 = 0.3031 | 0.687
x2 = 0.4127 | 0.752
x2 = 0.5164 | 0.808
x2 = 0.6146 | 0.912
x2 = 0.7079 | 1.021
x2 = 0.7965 | 1.135
x2 = 0.8809 | 1.326
x2 = 0.9612 | 1.564

CCC#N + CCCCOC(C)=O
303.15 K, 101.33 kPa
Settings | viscosity [mPa·s]
x1 = 0.11 | 0.6161
x1 = 0.2014 | 0.5958
x1 = 0.2942 | 0.5799
x1 = 0.4034 | 0.5557
x1 = 0.5034 | 0.5332
x1 = 0.594 | 0.5076
x1 = 0.7008 | 0.4785
x1 = 0.798 | 0.4496
x1 = 0.8966 | 0.419

COCCOCCO + CCCO
viscosity [mPa·s], 101 kPa
Settings | 298.15 K | 308.15 K | 318.15 K
x1 = 0.0105 | 1.951 | 1.522 | 1.248
x1 = 0.0278 | 1.961 | 1.547 | 1.25
x1 = 0.0448 | 1.966 | 1.559 | 1.259
x1 = 0.0797 | 1.979 | 1.566 | 1.275
x1 = 0.0978 | 1.998 | 1.566 | 1.28
x1 = 0.1316 | 2.02 | 1.581 | 1.296
x1 = 0.1852 | 2.069 | 1.613 | 1.326
x1 = 0.2267 | 2.104 | 1.648 | 1.369
x1 = 0.2853 | 2.158 | 1.693 | 1.399
x1 = 0.3029 | 2.172 | 1.713 | 1.415
x1 = 0.3226 | 2.2 | 1.724 | 1.43
x1 = 0.3872 | 2.284 | 1.79 | 1.486
x1 = 0.439 | 2.354 | 1.84 | 1.532
x1 = 0.4811 | 2.416 | 1.888 | 1.573
x1 = 0.5266 | 2.42 | 1.94 | 1.618
x1 = 0.5519 | 2.528 | 1.969 | 1.643
x1 = 0.6051 | 2.624 | 2.037 | 1.694
x1 = 0.6805 | 2.748 | 2.138 | 1.778
x1 = 0.7239 | 2.835 | 2.193 | 1.832
x1 = 0.7925 | 2.967 | 2.29 | 1.917
x1 = 0.8237 | 3.034 | 2.338 | 1.947
x1 = 0.8896 | 3.163 | 2.439 | 2.027
x1 = 0.9096 | 3.207 | 2.464 | 2.051
x1 = 0.9417 | 3.265 | 2.509 | 2.086
x2 = 0.0151 | 3.393 | 2.614 | 2.14

Cc1ccccc1C + CCCO
viscosity [mPa·s], 100 kPa
Settings | 298.15 K | 308.15 K
x2 = 0.063 | 0.7471 | 0.6664
x2 = 0.123 | 0.7703 | 0.6751
x2 = 0.2215 | 0.784 | 0.6782
x2 = 0.3496 | 0.8508 | 0.7537
x2 = 0.4648 | 0.9239 | 0.806
x2 = 0.5689 | 1.017 | 0.8647
x2 = 0.6634 | 1.124 | 0.9367
x2 = 0.7497 | 1.264 | 1.029
x2 = 0.8287 | 1.454 | 1.155
x2 = 0.9014 | 1.626 | 1.275
x2 = 0.9684 | 1.836 | 1.49
